Assay results published in patent US20120095024A1, “TOLUIDINE SULFONAMIDES AND THEIR USE” (Elara Pharmaceuticals GmbH, priority 2008, published 2012).

Tested on: MCF7 cells
Test: Cell proliferation assay (ATPlite), MCF-7
Assay type: cell-based, human
Conditions: Homo sapiens, inhibition of cell proliferation, 72 h
Method: MCF-7 human breast adenocarcinoma cells and HL-60 acute promyelocytic leukaemia cells were obtained from ATCC (LGC Promochem). HG-1 multiple myeloma cells were obtained from Dr. D. Hose (DKFZ Heidelberg). The CellSensor® HRE-bla HCT116 cell line (colorectal carcinoma) was obtained from Invitrogen.
Cells were grown under humidified 95% air, 5% CO2 at 37° C. in Dulbecco's modified Eagle's medium (DMEM: MCF-7) or RPMI 1640 medium (RPMI: HL-60, HG-1) supplemented with 10% fetal bovine serum (FBS), 100 U/ml penicillin and 100 μg/ml streptomycin, 2 mM L-glutamine, and 2 ng/ml IL-6 (for the HG-1 cell line only). The HCT116 cell line was grown under the same atmospheric conditions in McCoy's 5A medium supplemented with 10% FBS and penicillin/streptomycin as above, in addition to blasticidin as a selection marker at a final concentration of 5 μg/ml.
Cell proliferation experiments were carried out in 96-well tissue culture plates with seeding of 2000 cells/well (MCF-7) or 1000 cells/well (HL-60, HG-1) in 100 μl of the relevant medium. Cells were subsequently incubated under the conditions mentioned for 24 h prior to addition of compounds.
For the determination of compound EC50 values, 10 μl compounds at 11× concentrations in 5.5% DMSO were added to the wells at various concentrations yielding a final constant percentage of 0.5% DMSO at the desired 1× compound concentration. As a positive control, cells were treated with 5.5% DMSO. The cells were then incubated for a further 72 h prior to the measurement.
To determine the degree of inhibition of cell proliferation, cells were treated with ATPlite solution according to the manufacturer's instructions (PerkinElmer, ATPlite 1-step Luminescence ATP Detection Assay System) and luciferase readout measured on an Envision HTS multilabel plate reader (PerkinElmer) in luminescence mode according to established protocols. Raw data were imported into an ActivityBase database (IDBS, ID Business Solutions) and EC50 values calculated using the IDBS program ActivityBase XE. Table 2A and 2B show the IC50 values obtained in the above-outlined cell proliferation assay for exemplary compounds of the invention.

For Cc1ccc(S(=O)(=O)Nc2cc(-c3ccc([N+](=O)[O-])o3)ccc2C)cc1 [Example 76, 4-Methyl-N-[2-methyl-5-(5-nitro-furan-2-yl)-phenyl]-benzenesulfonamide], which EC50 is on record?
The EC50 was < 500 nM.

Cc1ccc(S(=O)(=O)Nc2cc(-c3nnn(C)n3)ccc2C)cc1 [Example 6, 4-Methyl-N-[2-methyl-5-(2-methyl-2H-tetrazol-5-yl)-phenyl]-benzenesulfonamide] was tested. Which EC50 did it give?
Its EC50 is 1000 to 10000 nM.

For Cc1ccc(S(=O)(=O)Nc2cc(-c3ccc(F)c(C)n3)ccc2C)cc1 [Example 46, N-[5-(5-Fluoro-6-methyl-pyridin-2-yl)-2-methyl-phenyl]-4-methyl-benzenesulfonamide], which EC50 is on record?
Its EC50 is 500 to 1000 nM.

Which EC50 does the source give for Cc1ccc(S(=O)(=O)Nc2cc(-c3cc(C)cc(C)n3)ccc2C)cc1 [Example 67, N-[5-(4,6-Dimethyl-pyridin-2-yl)-2-methyl-phenyl]-4-methyl-benzenesulfonamide] here?
The EC50 was 1000 to 10000 nM.

Which EC50 does the source give for Cc1ccc(-c2ccc(C#N)s2)cc1NS(=O)(=O)c1ccc(O)cc1 [Example 98, N-(5-(5-cyanothiophen-2-yl)-2-methylphenyl)-4-hydroxybenzenesulfonamide] here?
Its EC50 is 500 to 1000 nM.

With Cc1ccc(S(=O)(=O)Nc2cc(-c3ccc(C(F)(F)F)cn3)ccc2C)cc1 [Example 45, 4-Methyl-N-[2-methyl-5-(5-trifluoromethyl-pyridin-2-yl)-phenyl]-benzenesulfonamide] as the compound, how does the EC50 read?
Its EC50 is 1000 to 10000 nM.

With COc1ccc(S(=O)(=O)Nc2cc(-c3ccc(C#N)cc3)ccc2C)cc1F [Example 85, N-(4′-Cyano-4-methyl-biphenyl-3-yl)-3-fluoro-4-methoxy-benzenesulfonamide] as the compound, how does the EC50 read?
The EC50 was < 500 nM.

For COc1ccc(-c2ccc(C)c(NS(=O)(=O)c3ccc(C)cc3)c2)cn1 [Example 18, N-[5-(6-Methoxy-pyridin-3-yl)-2-methyl-phenyl]-4-methyl-benzenesulfonamide], which EC50 is on record?
The EC50 was 1000 to 10000 nM.

With Cc1ccc(-c2ccc(C#N)cc2)cc1NS(=O)(=O)c1ccc(O)cc1 [Example 100, N-(4′-cyano-4-methylbiphenyl-3-yl)-4-hydroxybenzenesulfonamide] as the compound, how does the EC50 read?
The EC50 was 1000 to 10000 nM.

COc1ccc(S(=O)(=O)Nc2cc(-c3ccc(C#N)c(O)c3)ccc2C)cc1 [Example 90, N-(4′-Cyano-3′-hydroxy-4-methyl-biphenyl-3-yl)-4-methoxy-benzenesulfonamide] was tested. Which EC50 did it give?
Its EC50 is < 500 nM.

With C#Cc1ccc(-c2ccc(C)c(NS(=O)(=O)c3ccc(C)cc3)c2)cc1 [Example 84, N-(4′-Ethynyl-4-methyl-biphenyl-3-yl)-4-methyl-benzenesulfonamide] as the compound, how does the EC50 read?
Its EC50 is 500 to 1000 nM.

With Cc1ccc(S(=O)(=O)Nc2cc(-c3ccc(N)cn3)ccc2C)cc1 [Example 106, N-(5-(5-aminopyridin-2-yl)-2-methylphenyl)-4-methylbenzenesulfonamide] as the compound, how does the EC50 read?
The EC50 was 1000 to 10000 nM.

For Cc1ccc(-c2ccc(C#N)s2)cc1NS(=O)(=O)c1ccc(N)cc1 [Example 93, 4-Amino-N-[5-(5-cyano-thiophen-2-yl)-2-methyl-phenyl]-benzenesulfonamide], which EC50 is on record?
Its EC50 is < 500 nM.

How did the EC50 turn out when CC(=O)c1cccc(-c2ccc(C)c(NS(=O)(=O)c3ccc(C)cc3)c2)n1 [Example 42, N-[5-(6-Acetyl-pyridin-2-yl)-2-methyl-phenyl]-4-methyl-benzenesulfonamide] was run?
Its EC50 is 500 to 1000 nM.

For Cc1ccc(S(=O)(=O)Nc2cc(-c3ccc([N+](=O)[O-])c(C)n3)ccc2C)cc1 [Example 111, 4-methyl-N-(2-methyl-5-(6-methyl-5-nitropyridin-2-yl)phenyl)benzenesulfonamide], which EC50 is on record?
Its EC50 is < 500 nM.

For COc1cc(-c2ccc(C)c(NS(=O)(=O)c3ccc(C)c(F)c3)c2)ccc1C#N [Example 99, N-(4′-cyano-3′-methoxy-4-methylbiphenyl-3-yl)-3-fluoro-4-methylbenzenesulfonamide], which EC50 is on record?
Its EC50 is < 500 nM.

Which EC50 does the source give for CCOc1ccc(-c2ccc(C)c(NS(=O)(=O)c3ccc(C)cc3)c2)cn1 [Example 37, N-[5-(6-Ethoxy-pyridin-3-yl)-2-methyl-phenyl]-4-methyl-benzenesulfonamide] here?
Its EC50 is 1000 to 10000 nM.

How did the EC50 turn out when Cc1ccc(S(=O)(=O)Nc2cc(-c3cccc(N(C)C)n3)ccc2C)cc1 [Example 66, N-[5-(6-Dimethylamino-pyridin-2-yl)-2-methyl-phenyl]-4-methyl-benzenesulfonamide] was run?
Its EC50 is 500 to 1000 nM.

Which EC50 does the source give for Cc1ccc(S(=O)(=O)Nc2cc(-c3ncccc3C(F)(F)F)ccc2C)cc1 [Example 27, 4-Methyl-N-[2-methyl-5-(3-trifluoromethyl-pyridin-2-yl)-phenyl]-benzenesulfonamide] here?
Its EC50 is 1000 to 10000 nM.

How did the EC50 turn out when Cc1ccc(S(=O)(=O)Nc2cc(-c3ccc(C)cn3)ccc2C)cc1 [Example 32, 4-Methyl-N-[2-methyl-5-(5-methyl-pyridin-2-yl)-phenyl]-benzenesulfonamide] was run?
Its EC50 is 1000 to 10000 nM.

How did the EC50 turn out when Cc1ccc(S(=O)(=O)Nc2cc(-c3ccc([N+](=O)[O-])cn3)ccc2C)cc1 [Example 55, 4-Methyl-N-[2-methyl-5-(5-nitro-pyridin-2-yl)-phenyl]-benzenesulfonamide] was run?
The EC50 was < 500 nM.

How did the EC50 turn out when Cc1ccc(-c2ccc(C#N)cc2)cc1NS(=O)(=O)c1ccc([N+](=O)[O-])cc1 [Example 86, N-(4′-Cyano-4-methyl-biphenyl-3-yl)-4-nitro-benzenesulfonamide] was run?
The EC50 was 1000 to 10000 nM.

For Cc1ccc(-c2ccc(C#N)cc2)cc1NS(=O)(=O)c1ccc([N+](=O)[O-])c(F)c1 [Example 105, N-(4′-cyano-4-methylbiphenyl-3-yl)-3-fluoro-4-nitrobenzenesulfonamide], which EC50 is on record?
The EC50 was 1000 to 10000 nM.

COc1nccc(-c2ccc(C)c(NS(=O)(=O)c3ccc(C)cc3)c2)n1 [Example 107, N-(5-(2-methoxypyrimidin-4-yl)-2-methylphenyl)-4-methylbenzenesulfonamide] was tested. Which EC50 did it give?
The EC50 was 1000 to 10000 nM.

How did the EC50 turn out when COc1ccc(S(=O)(=O)Nc2cc(-n3cccc3C)ccc2C)cc1 [Example 50, 4-Methoxy-N-[2-methyl-5-(2-methyl-pyrrol-1-yl)-phenyl]-benzenesulfonamide] was run?
The EC50 was < 500 nM.

How did the EC50 turn out when COc1cccnc1-c1ccc(C)c(NS(=O)(=O)c2ccc(C)cc2)c1 [Example 26, N-[5-(3-Methoxy-pyridin-2-yl)-2-methyl-phenyl]-4-methyl-benzenesulfonamide] was run?
The EC50 was 1000 to 10000 nM.

Cc1ccc(S(=O)(=O)Nc2cc(-n3cnnn3)ccc2C)cc1 [Example 2, 4-Methyl-N-(2-methyl-5-tetrazol-1-yl-phenyl)-benzenesulfonamide] was tested. Which EC50 did it give?
The EC50 was 1000 to 10000 nM.

For COc1ccc(S(=O)(=O)Nc2cc(-c3ccnc(C#N)c3)ccc2C)cc1 [Example 75, N-[5-(2-Cyano-pyridin-4-yl)-2-methyl-phenyl]-4-methoxy-benzenesulfonamide], which EC50 is on record?
Its EC50 is 500 to 1000 nM.

For Cc1ccc(S(=O)(=O)Nc2cc(-c3sccc3C)ccc2C)cc1 [Example 24, 4-Methyl-N-[2-methyl-5-(3-methyl-thiophen-2-yl)-phenyl]-benzenesulfonamide], which EC50 is on record?
The EC50 was < 500 nM.

With Cc1ccc(S(=O)(=O)Nc2cc(-c3ncc(C#N)cn3)ccc2C)cc1 [Example 64, N-[5-(5-Cyano-pyrimidin-2-yl)-2-methyl-phenyl]-4-methyl-benzenesulfonamide] as the compound, how does the EC50 read?
Its EC50 is 500 to 1000 nM.

For Cc1ccc(-c2ccc(C#N)cc2)cc1NS(=O)(=O)c1ccc(N)c(F)c1 [Example 110, 4-amino-N-(4′-cyano-4-methylbiphenyl-3-yl)-3-fluorobenzenesulfonamide], which EC50 is on record?
Its EC50 is < 500 nM.

Which EC50 does the source give for COc1ccc(S(=O)(=O)Nc2cc(-c3ccc(C#N)c(C#N)c3)ccc2C)cc1 [Example 65, N-(3′,4′-Dicyano-4-methyl-biphenyl-3-yl)-4-methoxy-benzenesulfonamide] here?
Its EC50 is < 500 nM.

Which EC50 does the source give for Cc1ccc(S(=O)(=O)Nc2cc(-c3cc(C)ccn3)ccc2C)cc1 [Example 31, 4-Methyl-N-[2-methyl-5-(4-methyl-pyridin-2-yl)-phenyl]-benzenesulfonamide] here?
The EC50 was 1000 to 10000 nM.

Which EC50 does the source give for Cc1ccc(S(=O)(=O)Nc2cc(-c3cncc(C#N)c3)ccc2C)cc1 [Example 34, N-[5-(5-Cyano-pyridin-3-yl)-2-methyl-phenyl]-4-methyl-benzenesulfonamide] here?
Its EC50 is < 500 nM.

How did the EC50 turn out when COc1ccc(S(=O)(=O)Nc2cc(-c3ccsc3C)ccc2C)cc1 [Example 17, 4-Methoxy-N-[2-methyl-5-(2-methyl-thiophen-3-yl)-phenyl]-benzenesulfonamide] was run?
Its EC50 is < 500 nM.

Which EC50 does the source give for Cc1ccc(S(=O)(=O)Nc2cc(-c3ccc(C#N)cc3)ccc2C)cc1F [Example 88, N-(4′-Cyano-4-methyl-biphenyl-3-yl)-3-fluoro-4-methyl-benzenesulfonamide] here?
The EC50 was < 500 nM.

CC(=O)c1ccc(-c2ccc(C)c(NS(=O)(=O)c3ccc(C)cc3)c2)nc1 [Example 54, N-[5-(5-Acetyl-pyridin-2-yl)-2-methyl-phenyl]-4-methyl-benzenesulfonamide] was tested. Which EC50 did it give?
Its EC50 is 1000 to 10000 nM.

Same assay, conditions: inhibition of cell proliferation, 72 h

With COc1ccc(S(=O)(=O)Nc2cc(-c3ccc(C#N)s3)ccc2C)cc1OC [Example 108, N-(5-(5-cyanothiophen-2-yl)-2-methylphenyl)-3.4-dimethoxybenzenesulfonamide] as the compound, how does the EC50 read?
The EC50 was 500 to 1000 nM.
